# Test results from patent US20120108624A1, “TREATMENT OF DYSKINESIA RELATED DISORDERS” (priority 2009, published 2012).
# Counter-ions that a name gives are not always drawn.
# Assays:
# [1] = test system: Sprague Dawley rats with unilateral 6-OHDA lesions; assay: Induction of dyskinesia model with naive 6-OHDA rats (AIMS); format: in vivo, rat; settings: once daily s.c. for 14 days, scored up to day 12
# Description: Twenty male Sprague Dawley rats with unilateral 6-OHDA lesions were used to test induction of dyskinesia by compound 10 (administered subcutaneously; n=7; group 1) compared to L-DOPA/benserazide (6 mg/kg / 15 mg/kg subcutaneously; n=7; group 2) and apomorphine (1 mg/kg subcutaneously; n=6; group 3). Benserazide is a DOPA decarboxylase inhibitor which is unable to cross the blood-brain barrier; it is used to prevent metabolism of L-DOPA to dopamine outside the brain. Three weeks after 6-OHDA surgery, the animals were tested for their rotation response induced by 2.5 mg/kg amphetamine, which induces ipsilateral circling (amphetamine increases the level dopamine in the brain via the intact neurons on the unlesioned side causing the animals to rotate in the opposite direction as compared to their response to direct agonists such as L-DOPA and apomorphine that act predominantly on the lesioned side of the brain). […] Rats where then randomly allocated to the three treatment groups balancing the groups for the animals' rotation response on amphetamine.
# Rats received drug for 14 consecutive days and were scored on days 1, 2, 3, 4, 5, 8, 10 and 12. […] Following this experiment all rats were given subcutaneous injections of compound 10 from day 15-19 in order to determine how Example I influenced the severity of dyskinesia seen in the apomorphine and L-DOPA groups. Dykinesia scoring was performed on day 19 of the experiment (corresponding to 5 days on compound 10).
# [2] = test system: rats with unilateral 6-OHDA lesions; assay: 6-OHDA rat model (rotation response); format: in vivo; settings: rotation in unilateral 6-OHDA rats; for D1/D2 ratio: MED and MED to overcome Nemonapride block
# Description: Dopamine agonists can have activity at either the D1 receptors, the D2 receptors, or both. The rotation response in rats with unilateral 6-OHDA lesions can be used to assess compounds for their ability to stimulate both receptor types and induce rotation (Ungerstedt and Arbuthnott, Brain Res., 1970, 24, 485; Setler, et al. Eur. J. Pharmacol., 1978, 50(4), 419; and Ungerstedt, et al. “Advances in Dopamine Research” (Kohsaka, Ed.), Pergamon Press, 1982, Oxford, p. 219). 6-OHDA (6-hydroxydopamine) is a neurotoxin used by neurobiologists to selectively kill dopaminergic neurons at the site of injection in the brain in experimental animals. In the 6-OHDA model, the nigrostraital dopamine cells are destroyed on one side of the brain (unilateral) by injecting 6-OHDA into the median forebrain bundle, located in front of the substantia nigra. This unilateral injection combined with stimulation by dopamine agonists such as apomorphine will induce rotation behaviour as only one side of the brain is stimulated. Experiments consist of determining a minimum effective dose (MED) to induce rotation for the compound in question. Once a MED has been determined, a second experiment is performed to determine the MED of the compound to overcome Nemonapride block (MEDNemonapride). Nemonapride is a D2 antagonist that blocks the D2 receptor, therefore any observed rotations would be dependent upon activity at the D1 receptor. Finally, once the MEDNemonapride is known a third experiment is run using the MEDNemonapride dose and observing the effect of the D1 antagonist, SCH 23390 alone, the D2 antagonist, Nemonapride alone and finally, the effect of combined treatment with SCH 23390 and Nemonapride. […] This model was validated using apomorphine as the proof-of-principle compound for mixed D1/D2 agonists.
# Dopamine agonists can have activity at either the D1 receptors, the D2 receptors, or both. The rotation response in rats with unilateral 6-OHDA lesions can be used to assess compounds for their ability to stimulate both receptor types and induce rotation (Ungerstedt and Arbuthnott, Brain Res. 24, 485 (1970); Setler, et al., Eur. J. Pharmacol., 50(4), 419 (1978); and Ungerstedt, et al., “Advances in Dopamine Research” (Kohsaka, Ed.), Pergamon Press, 1982, Oxford, p. 219). 6-OHDA (6-hydroxydopamine) is a neurotoxin used by neurobiologists to selectively kill dopaminergic neurons at the site of injection in the brain in experimental animals. In the 6-OHDA model the nigrostraital dopamine cells are destroyed on one side of the brain (unilateral) by injecting 6-OHDA into the median forebrain bundle, located in front of the substantia nigra. […] Once a MED has been determined, a second experiment is performed to determine the MED of the compound to overcome Nemonapride block (MEDNemonapride). […]
# [3] = test system: rats with unilateral 6-OHDA lesions; assay: Dyskinesia profile in rats with unilateral 6-OHDA lesions (summary statements); format: in vivo, rat; settings: for induction of dyskinesias compared with L-DOPA and apomorphine / reduction of L-DOPA induced dyskinesias compared with D2 agonists (pramipexole): rats with unilateral 6-OHDA lesions
# [4] = Conversion into the active metabolite upon in-vivo administration
# [5] = test system: 'parkinsonian' rats (6-OHDA rats); assay: Dyskinesia rat model, Example 3 (AIMs, test drug vs. L-DOPA/benserazide); format: in vivo
# Description: A rat dyskinesia model reported in the literature (Lundblad, et al., Eur. J Neurosci., 2002, 15, 120) was used to examine the effects of the active metabolite vs. L-DOPA/benserazide with respect to dyskinesias that were assessed as abnormal involuntary movements (AIMs) in ‘parkinsonian’ rats.
# 0-180 min. Animals were scored for dyskinesias.
# (§1) At days 1, 3, 5, 8 and 12, animals were scored according to AIM-scoring by recording dyskinesias using the Abnormal Involuntary Movement Scale (AIMS) as described previously (Lundblad, et al., Eur. J Neurosci., 2002, 15, 120). Days 15-26: Group A animals were treated with the test drug (as group B) instead of L-DOPA/benserazide. Day 15, 16, 17, 19, 22, 24 and 26: Animals scored according AIM-scoring.
# MPTP treated marmosets = assay: Anti-Parkinsonian effects in MPTP-treated common marmosets; format: in vivo, common marmoset; settings: dosed p.o.
# Description: (§2) The experiments were conducted using 6 MPTP treated marmosets (2.0 mg/kg daily for up to 5 consecutive days dissolved in sterile 0.9% saline solution). All the animals had previously been treated with L-DOPA (12.5 mg/kg p.o., plus carbidopa 12.5 mg/kg p.o.) administered daily for up to 30 days in order to induce dyskinesia. […] Domperidone was administered 60 min before any of the test compounds. Domperidone is an anti-dopaminergic drug that suppresses nausea and vomiting. Locomotor Activity was assessed using test cages that are comprised of 8 photo-electric switches comprised of 8 infra-red beams which are strategically placed in the cage and interruption of a beam is recorded as one count. […] The assessment of motor disability was performed by a trained observer blinded to the treatment.
# as §2, with “antidopaminergic” for “anti-dopaminergic”
# as §2, with “compounds.” for “compounds. Domperidone is an anti-dopaminergic drug that suppresses nausea and vomiting.”
# 'parkinsonian' rats = assay: Dyskinesia rat model, Example 4 (AIMs, Compound 12 vs. L-DOPA/Benserazide); format: in vivo
# Description: A rat dyskinesia model reported in the literature (Lundblad, et al., Eur. J Neurosci., 2002, 15, 120) was used to examine the effects of Compound 12 vs. L-DOPA/Benserazide with respect to dyskinesias that were assessed as abnormal involuntary movements (AIMs) in ‘parkinsonian’ rats.
# Throughout the study animals received L-DOPA/Benserazide (6 mg/kg and 15 mg/kg subcutaneous) or Compound 12 (group B) once daily at t=−20 min. 0-180 min. Animals were scored for dyskinesias. Days 1-14: All animals were dosed with L-DOPA/Benserazide (group A) or Compound 12 (group B).
# as §1, with “previously.” for “previously (Lundblad, et al., Eur. J Neurosci., 2002, 15, 120).”, “Compound 12” for “the test drug”, “L-DOPA/Benserazide.” for “L-DOPA/benserazide.”
# [6] = test system: mouse model of severe dopamine depletion; assay: Superiority model (MPTP mice treated with AMPT, motility); format: in vivo; settings: AMPT 250 mg/kg s.c., last 1 hour of recorded data
# Description: On the day of the experiment, mice were treated with AMPT (250 mg/kg subcutaneously) and then returned to their home cages for 1.5 hours after which they were placed in individual cages in the motility unit. AMPT (alpha-methyl-p-tyrosine) is a drug that temporarily reduces brain catecholamine activity (in this case especially dopamine levels). […] Various dopaminergic compounds were tested for their ability to reverse the motility deficits produced in this model. […] Benserazide is a DOPA decarboxylase inhibitor which is unable to cross the blood-brain barrier; it is used to prevent metabolism of L-DOPA to dopamine outside the brain.
# On the day of the experiment, mice were treated with AMPT (250 mg/kg subcutaneously) and then returned to their home cages for 1.5 hours after which they are placed in individual cages in the motility unit. AMPT (alpha-methyl-p-tyrosine) is a drug that temporarily reduces brain catecholamine activity (in this case especially dopamine levels). […] Various dopaminergic compounds are tested for their ability to reverse the motility deficits produced in this model. […] Benserazide is a DOPA decarboxylase inhibitor which is unable to cross the blood-brain barrier; it is used to prevent metabolism of L-DOPA to dopamine outside the brain.
# On the day of the experiment, mice were treated with AMPT (250 mg/kg subcutaneously) and then returned to their home cages for 1.5 hours after which they were placed in individual cages in the motility unit. AMPT (alpha-methyl-p-tyrosine) is a drug that temporarily reduces brain catecholamine activity (in this case especially dopamine levels). […] Various dopaminergic compounds were tested for their ability to reverse the motility deficits produced in this model. […] Benserazide is a DOPA decarboxylase inhibitor which is unable to cross the blood-brain barrier; it was used to prevent metabolism of L-DOPA to dopamine outside the brain.
SMILES,dyskinesia scores (AIMS) [1],induction of dyskinesias compared with L-DOPA and apomorphine [3],reduction of L-DOPA induced dyskinesias compared with D2 agonists (pramipexole) [3],D1/D2 ratio [2],conversion into active metabolite (Compound 10) [4],duration of reversal of motor disability compared to L-DOPA (MPTP treated marmosets),efficacy compared to L-DOPA (MPTP treated marmosets),locomotor activity and motor disability (MPTP treated marmosets),reversal of motility deficits / restoration of locomotion [6],also measured
"CCCN1CCC[C@@H]2Cc3c(ccc(O)c3O)C[C@H]21 [Compound 10, (4aR,10aR)-1-Propyl-1,2,3,4,4a,5,10,10a-octahydro-benzo[g]quinoline-6,7-diol hydrobromide]",about 30,,,,,,,,,duration of action [2]: ca. 18 h
"CCCN1CCC[C@@H]2Cc3c(ccc4c3OCO4)C[C@H]21 [Compound 11, (6aR,10aR)-7-n-Propyl-6,6a,7,8,9,10,10a,11-octahydro-1,3-dioxa-7-aza-cyclopenta[a]anthracene hydrochloride]",,induce less dyskinesias than L-DOPA and apomorphine,reduce L-DOPA induced dyskinesias more effectively than D2 agonists,about 2,Convert into the Catechol-Containing Active Metabolite,prolonged reversal of motor disability,as efficacious as L-DOPA,dose-related increases in locomotor activity and reversal of motor disability,,"reversal of dyskinesias induced by L-DOPA/benserazide and apomorphine ([3]; rats lesioned with 6-OHDA): reversed dyskinesias; dyskinesia scores (AIMS) ([5]; after eight days of once daily treatment, constant until day 12): 2-4; induction of dyskinesia compared with L-DOPA ([5]; days 1-14): significantly less dyskinesia than L-DOPA; reduction of the dyskinesias induced by L-DOPA ([5]; group A shifted from L-dopa/benserazide to the test drug, days 15-26): able to reduce the dyskinesias induced by L-DOPA"
"CCCN1CCC[C@@H]2CC3=C(CCCC3=O)C[C@H]21 [Compound 12, (4aR,10aR)-1-n-propyl-2,3,4,4a,5,7,8,9,10,10a-decahydro-1H-benzo[g]quinolin-6-one]",,induces less dyskinesias than L-DOPA and apomorphine,reduces L-DOPA induced dyskinesias more effectively than D2 agonists,,Convert into the Catechol-Containing Active Metabolite,prolonged reversal of motor disability,as efficacious as L-DOPA,dose-related increases in locomotor activity and reversal of motor disability,,"dyskinesia scores (AIMS) ('parkinsonian' rats; after eight days of once daily treatment): 10-25; dyskinesia scores (AIMS) after shifting group A from L-DOPA/benserazide ('parkinsonian' rats; compound 12 for 10 days after L-DOPA/benserazide): 30-35; induction of dyskinesia compared with L-DOPA ('parkinsonian' rats; days 1-14): significantly less dyskinesia than L-DOPA; reduction of the dyskinesias induced by L-DOPA ('parkinsonian' rats; group A shifted to compound 12, days 15-26): able to reduce the dyskinesias induced by L-DOPA"
N[C@@H](Cc1ccc(O)c(O)c1)C(=O)O [L-DOPA],about 70,,,,,,,increased locomotor activity and reversed motor disability,able to reverse motility deficits,
CN1CCc2cccc3c2[C@H]1Cc1ccc(O)c(O)c1-3 [apomorphine],about 70,,,about 3,,,,,restored locomotion,reversal of motility deficits / restoration of locomotion ([6]; listed as Apomorphine): able to reverse motility deficits
"CCCN(CCc1cccs1)[C@H]1CCc2c(O)cccc2C1 [rotigotine, reference compound]",,,,,,,,,,D1 component [2]: could not be observed
